Several values for one entry are separate records, joined by “and”; a condition that tells them apart may be missing. Equal values may be shown once. Activity calls are given as the source filed them.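 The calls were made as follows: active = compounds giving half or more protection of infected cells from virus-caused growth loss, again on retest; inactive = the rest.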 Where a SMILES comes first, the peptide text is derived from it.
Tested on: CEM cells HIV-1 protection, formazan growth assay
Assay: NCI AIDS Antiviral Assay
Details: for IC50: measured here: growth of uninfected CEM cells
In short: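 CEM (human) cells, HIV-1 infected vs uninfected, 5-point dosing, formazan growth read-out. Retest threshold 50% protection.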

| SMILES | EC50 | IC50 | outcome |
| --- | --- | --- | --- |
| O=C(NC1C(=O)NC(CCc2ccccc2)NC1=O)OCc1ccccc1 (stereo unspecified) | > 200 µM | > 200 µM |  |
| Cn1c(=O)c2c(nc3n2CCCC(=O)N3CC(O)CCl)n(C)c1=O (stereo unspecified) | > 200 µM | 85.1 µM |  |
| COc1c2c(cc3c1[C@@H]1Oc4c(ccc(O)c4CC=C(C)C)[C@@H]1CO3)OC(C)(C)C=C2 | 2.24 µM | 23.4 µM |  |
| C=C1C[C@](OC)([C@H](O)C(=O)N[C@@H](OC)[C@@H]2C[C@@H](O)C(C)(C)[C@@H](C[C@@H](COC)OC)O2)O[C@H](C)[C@@H]1C |  |  | inactive |
| CCC(C)C(NC(=O)CNC(=O)C(Cc1cnc[nH]1)NC(=O)C(NC(=O)C(CS)NC(=O)C(CCC(N)=O)NC(=O)C(NC(=O)C(NC(=O)C(CO)NC(=O)C(NC(=O)C(CC(N)=O)NC(=O)C(NC(=O)C(CO)NC(=O)C1CCCN1C(=O)CNC(=O)C(NC(=O)CN)C(C)O)C(C)O)C(C)C)C(C)O)C(C)C)C(C)O)C(=O)NC(CCCN=C(N)N)C(N)=O (stereo unspecified) (H-GTGPSTNVSTVQCTHGIR-NH2; configuration not given here) | > 50.1 µM | > 50.1 µM |  |
| O=C1N=NC(=O)N1c1cc(C(F)(F)F)cc(C(F)(F)F)c1 | > 200 µM | 2.88 µM |  |
| CC(O)C1OC(n2cnc3c(=O)[nH]c(N)nc32)C(O)C1O (stereo unspecified) | > 170 µM | > 170 µM |  |
| COc1ccc2c(C)cc(=O)oc2c1 | > 200 µM | > 200 µM |  |
| CC(=O)N1CCc2[nH]c3ccccc3c2CC1 | > 575 µM | 234 µM |  |
| CCC(C(=O)C(=O)OC)P1(=O)OC(C)(C)CN1C(C)(C)C (stereo unspecified) | > 200 µM | > 200 µM |  |
| OCC1OC(c2ccccc2)CC1O (stereo unspecified) | > 200 µM | > 200 µM |  |
| O=C(/C=C/c1ccc([N+](=O)[O-])o1)N1CCN(Cc2ccccc2)CC1 | > 95.5 µM | 11.2 µM |  |
| CCN(C(=O)N[C@@H](CC(C)C)C(=O)NCC(=O)OC)c1ccccc1 | > 200 µM | 110 µM |  |
| COc1cc2cc(C(=O)N3CC(CCl)c4c3cc(N)c3ccccc43)[nH]c2c(OC)c1OC (stereo unspecified) | > 0.2 µM | 0.000832 µM |  |
| O=C(OCc1ccccc1)N1N=NC2C1C1CC(OCc3ccccc3)(OCc3ccccc3)C2O1 (stereo unspecified) | > 14.8 µM | > 14.8 µM |  |
| C[C@]12CC[C@H](O)CC1=CC[C@@H]1C2CC[C@@]2(C)C1CC[C@@H]2c1ncc(-c2ccccc2)s1 (stereo partly specified) | > 11.5 µM | > 11.5 µM |  |
| Nc1nc2ncc(CNc3ccc(C(=O)NC(CCC(=O)NC(CCC(=O)NC(CCC(=O)NC(CCC(=O)NC(CCC(=O)O)C(=O)O)C(=O)O)C(=O)O)C(=O)O)C(=O)O)cc3)nc2c(=O)[nH]1 (stereo unspecified) | > 100 µM | > 100 µM |  |
| O=S1ON=C(C2CCC(C3=NOS(=O)O3)C2)O1 (stereo unspecified) | > 200 µM | > 200 µM |  |
| CN(C)C(c1ccccc1)C1COC2Cc3ccccc3C1O2 (stereo unspecified) | > 200 µM | > 200 µM and 151 µM |  |

| SMILES | EC50 | IC50 | outcome |
| --- | --- | --- | --- |
| Cc1ncc([N+](=O)[O-])n1CCNC(=O)CCCCCn1ccnc1[N+](=O)[O-] |  |  | inactive |
| Cc1cc(=O)c2ccccc2o1 |  |  | inactive |
| O=[N+]([O-])c1ccc(-n2nnc3ccccc32)nc1 | > 200 µM | > 200 µM |  |
| CCOC(=O)/C=C/c1ccc2c(c1)OC(c1ccc(O)c(OC)c1)C(CO)O2 (stereo unspecified) | > 129 µM | 24.5 µM |  |
| CS(=O)(=O)c1ccc(/C=C2/C=Cc3ccccc32)cc1 | > 25.7 µM | > 25.7 µM |  |
| O=C1CCCC/C1=C1\C(=O)Nc2cc(F)ccc21 | > 1020 µM | 107 µM |  |
| CCN(CC)c1ccc2c(c1)Oc1ccc(N(C(C)=O)c3ccccc3)cc1C21OC(=O)c2ccccc21 (stereo unspecified) | > 200 µM | 6.03 µM |  |
| O=C(N/C(=C\c1ccc(Br)cc1)c1nc2ccccc2s1)c1ccccc1 | > 22.9 µM | > 22.9 µM |  |
| CN(C)CCNC(=O)c1cccc(C(C)(C)C)c1[N+](=O)[O-] | > 200 µM | 135 µM |  |
| COC1=CC2=C3[C@H](Cc4cc5c(c(c4)Oc4ccc(cc4)C[C@@H]4c6cc7c(cc6CCN4C)OC[C@]3(O7)C1=O)OCO5)N(C)CC2 |  |  | inactive |
| N#Cc1ccc(OCc2ccc3nc(-c4ccccc4)c(Cl)nc3c2)cc1 | > 100 µM | > 100 µM |  |
| CC(C)(C)C1CCC(N=C(N)CSS(=O)(=O)O)CC1 (stereo unspecified) | > 200 µM | 24 µM |  |
| Nn1c(CCCCCCCCc2nnc(COc3ccc(Cl)cc3Cl)n2N)nnc1COc1ccc(Cl)cc1Cl | > 200 µM | 42.7 µM |  |
| Cc1cc(N(CCC#N)CCC#N)ccc1/C(N=Nc1ccc([N+](=O)[O-])cc1)=N\NC(=O)c1cc(Cl)ccc1O | > 200 µM | 22.9 µM |  |
| NC(c1ccccc1)(C(F)(F)F)P1(=O)OC(=O)c2ccccc2O1 (stereo unspecified) | > 200 µM | > 200 µM |  |
| NNC(=O)c1nnn(CCc2ccccc2)c1C(=O)NN | > 200 µM | > 200 µM |  |
| O=C(NNC1=NCCCN1)c1ccco1 | > 200 µM | > 200 µM |  |
| CN1CCCCC1CCN1c2ccccc2Sc2ccc(S(C)=O)cc21 (stereo unspecified) | 166 µM | 219 µM |  |
| O=[N+]([O-])c1c(/C=N/Nc2ccccc2)oc(-c2ccc3c(c2)OCO3)c1-c1ccc2c(c1)OCO2 | > 21.4 µM | 3.98 µM |  |

| SMILES | EC50 | IC50 | outcome |
| --- | --- | --- | --- |
| CNC(=O)OCn1cnc(Cl)c1Cl | > 200 µM | > 200 µM |  |
| Cc1ccc(-c2cc(-c3ccccc3)c(C#N)c(=O)n2C2OC(CO)C(O)C(O)C2O)cc1 (stereo unspecified) | 21.4 µM | 22.4 µM |  |
| N#Cc1ccc(NC(=O)C(CC(=O)OCc2ccccc2)NC(=O)OCc2ccccc2)cc1 (stereo unspecified) | > 200 µM | > 200 µM |  |
| O=c1c2ccccc2n2c(=S)[nH]nc2n1-c1ccccc1 | > 200 µM | > 200 µM |  |
| CCCCCCCCCCCCCCC(C)CCC(=O)O (stereo unspecified) |  |  | inactive |
| Cc1ccc(C(=O)Nc2ccc(CP(=O)(O)O)cc2)cc1NC(=O)c1cccc(N)c1 | > 200 µM | > 200 µM |  |
| CCC(C)C(N)C(=O)NCC(=O)NC(CCCN=C(N)N)C(=O)NC(CC(N)=O)C(=O)NC(CC(C)C)C(=O)NC(CC(C)C)C(=O)NC(C(=O)NC(CCC(N)=O)C(=O)NC(C(=O)NCC(=O)O)C(C)CC)C(C)O (stereo unspecified) (H-IGRNLLTQIG-OH; configuration not given here) |  |  | inactive |
| COC(=O)[C@H](Cc1ccccc1)NC(=O)N(CCC#N)CCCCN(CCC#N)C(=O)N[C@@H](Cc1ccccc1)C(=O)OC | > 200 µM | 115 µM |  |
| COc1ccc2[nH]c3c(C)cc([N+](=O)[O-])c(C)c3c2c1 | > 200 µM | 10.7 µM |  |
| Cc1[nH]c(=O)nc(N/N=C/c2ccc(Cl)cc2)c1C(=O)Nc1ccc(Cl)cc1 |  |  | inactive |
| C=CC1=C(C)C2=NC1=CC1=NC(=CC3=C(C)C4=C(O)C(C(=O)OC)C(=C5NC(=C2)C(C)C5CCC(=O)OC/C=C(\C)CCCC(C)CCCC(C)CCCC(C)C)C4=N3)C(CC)=C1C (stereo unspecified) | > 100 µM | 2.14 µM |  |
| CCCc1cc(=O)[nH]c(SCC(=O)O)n1 | > 200 µM | > 200 µM |  |
| NC12CC3CC(C1)CC(C(=O)O)(C3)C2 | > 1070 µM | > 1070 µM |  |
| CS(=O)(=O)OCCCS(=O)(=O)O | > 200 µM | > 200 µM |  |
| O=S(=O)(SC1=NCCN1)c1ccc2ccccc2c1 | 22.9 µM | 29.5 µM |  |
| CCSc1c2cc(OC)ccc2nc2ccc(OC)cc12 | > 200 µM | 6.92 µM |  |
| [O-]c1c(-c2cccc3ccccc23)sc(-c2cccc3ccccc23)[n+]1-c1ccccc1 |  |  | inactive |
| CCOC(=O)C1(c2ccccc2)CCC(=O)CC1 | > 380 µM | > 380 µM |  |
| CCCCCCCCCCCCCC(=O)OC1C(O)C(CO)OC(OC)C1NC(=O)N(CCCl)N=O (stereo unspecified) | > 34.7 µM | > 34.7 µM |  |

From PubChem BioAssay AID179 (DTP/NCI, 2004)
